Experimental findings from patent US10800791B2, “Triazole ACC inhibitors and uses thereof” (Gilead Apollo, LLC, priority 2015, dated 2020) are described below.

Converted amounts (≈) assume the structure as drawn. Like-named read-outs stand apart in the source and are kept apart here.

The term IC50 denotes the concentration at which inhibition is half-maximal. The term MIC denotes the least concentration at which growth counts as inhibited.

The target of experiment [1] is fungal (fACC2) (UniProt Q00955). The following applies: read-out: fACC2 (in vitro ACC2 Inhibition Assay, IC50); Table 2b, additional results; ADP-Glo, 5 nM ACC2, 20 μM ATP, 20 μM acetyl-CoA.
Chain of fungal (fACC2) (Q00955 whole entry): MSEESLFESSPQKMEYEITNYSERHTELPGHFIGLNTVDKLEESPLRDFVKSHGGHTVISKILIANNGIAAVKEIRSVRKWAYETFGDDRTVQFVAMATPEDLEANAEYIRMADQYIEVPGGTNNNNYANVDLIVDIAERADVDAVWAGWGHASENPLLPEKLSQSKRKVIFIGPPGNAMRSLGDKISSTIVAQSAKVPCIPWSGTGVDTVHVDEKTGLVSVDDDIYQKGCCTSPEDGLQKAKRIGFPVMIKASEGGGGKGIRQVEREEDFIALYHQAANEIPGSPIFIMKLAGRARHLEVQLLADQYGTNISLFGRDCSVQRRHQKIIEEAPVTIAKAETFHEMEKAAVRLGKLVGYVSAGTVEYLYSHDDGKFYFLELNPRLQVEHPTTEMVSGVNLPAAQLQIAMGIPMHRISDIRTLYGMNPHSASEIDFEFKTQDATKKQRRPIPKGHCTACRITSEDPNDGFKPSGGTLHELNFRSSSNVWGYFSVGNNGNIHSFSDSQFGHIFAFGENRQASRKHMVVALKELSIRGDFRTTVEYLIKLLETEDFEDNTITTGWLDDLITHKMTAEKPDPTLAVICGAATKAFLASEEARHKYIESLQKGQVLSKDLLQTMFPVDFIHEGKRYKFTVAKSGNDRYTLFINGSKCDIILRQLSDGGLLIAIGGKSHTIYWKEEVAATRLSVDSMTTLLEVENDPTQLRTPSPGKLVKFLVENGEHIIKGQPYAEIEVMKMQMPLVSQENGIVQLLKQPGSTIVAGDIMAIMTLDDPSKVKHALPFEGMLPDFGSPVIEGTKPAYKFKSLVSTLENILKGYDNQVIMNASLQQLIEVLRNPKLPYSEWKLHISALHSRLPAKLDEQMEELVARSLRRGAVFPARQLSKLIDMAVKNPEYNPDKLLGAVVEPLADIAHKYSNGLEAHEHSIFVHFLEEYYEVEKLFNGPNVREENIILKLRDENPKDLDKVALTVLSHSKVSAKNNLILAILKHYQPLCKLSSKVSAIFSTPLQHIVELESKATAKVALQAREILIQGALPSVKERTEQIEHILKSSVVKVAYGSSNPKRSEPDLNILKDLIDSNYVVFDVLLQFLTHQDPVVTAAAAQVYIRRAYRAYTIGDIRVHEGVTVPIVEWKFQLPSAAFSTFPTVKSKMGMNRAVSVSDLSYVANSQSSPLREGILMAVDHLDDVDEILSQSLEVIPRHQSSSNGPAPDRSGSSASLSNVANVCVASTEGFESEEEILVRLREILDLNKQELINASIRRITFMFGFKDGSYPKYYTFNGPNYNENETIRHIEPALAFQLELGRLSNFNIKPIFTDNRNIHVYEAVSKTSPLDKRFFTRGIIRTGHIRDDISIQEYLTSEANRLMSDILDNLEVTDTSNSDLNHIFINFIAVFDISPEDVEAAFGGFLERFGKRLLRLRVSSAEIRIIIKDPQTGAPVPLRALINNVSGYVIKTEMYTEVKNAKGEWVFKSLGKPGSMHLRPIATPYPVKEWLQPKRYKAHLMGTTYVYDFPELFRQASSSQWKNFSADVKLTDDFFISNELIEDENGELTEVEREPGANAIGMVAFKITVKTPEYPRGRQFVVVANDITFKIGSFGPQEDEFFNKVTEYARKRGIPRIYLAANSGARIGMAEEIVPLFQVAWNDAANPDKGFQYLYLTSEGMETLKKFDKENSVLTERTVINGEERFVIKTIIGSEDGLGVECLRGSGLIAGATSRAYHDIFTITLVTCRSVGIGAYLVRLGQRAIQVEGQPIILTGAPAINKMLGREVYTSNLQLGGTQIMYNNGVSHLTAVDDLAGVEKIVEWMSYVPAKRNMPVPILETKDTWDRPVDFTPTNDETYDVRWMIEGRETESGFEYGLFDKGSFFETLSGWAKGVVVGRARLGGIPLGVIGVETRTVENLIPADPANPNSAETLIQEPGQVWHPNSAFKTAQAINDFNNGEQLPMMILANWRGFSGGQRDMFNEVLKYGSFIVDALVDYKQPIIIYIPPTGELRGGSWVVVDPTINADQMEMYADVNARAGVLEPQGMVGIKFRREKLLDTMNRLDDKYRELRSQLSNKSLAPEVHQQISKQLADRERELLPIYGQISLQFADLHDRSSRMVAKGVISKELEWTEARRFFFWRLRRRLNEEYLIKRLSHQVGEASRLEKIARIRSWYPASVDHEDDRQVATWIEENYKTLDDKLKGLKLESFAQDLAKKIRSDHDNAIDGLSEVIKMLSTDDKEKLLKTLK
The subject of experiment [2] is C. parapsilosis. Nature of the experiment: Antifungal Activity Assay (broth microtiter MIC), C. parapsilosis. The format is cell-based, Candida parapsilosis. The following applies: Lodderomyces parapsilosis, ATCC22019, 48 h. In outline: (§1)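 Colonies from 24 h Sabouraud dextrose agar plates (35° C) are suspended in RPMI 1640+MOPS and diluted to give 2.5×10^3 CFU/mL in the wells. Plates are set up per CLSI M27-A3. Visual MIC is recorded at 48 h.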

The target of experiment [3] is human (hACC2) (Homo sapiens, UniProt O00763). Nature of the experiment: In vitro ACC inhibition assay (ADP-Glo), hACC2. The following applies: Table 2b, additional results, 5 nM ACC2, 20 μM ATP, 20 μM acetyl-CoA. It counts as biochemical. On the procedure:
The detailed procedure is as follows. […] 10 μL ADP glo reagent was added. […] 20 μL kinase detection reagent was added.
(ADP-Glo turns the ADP formed in a reaction into a luminescent signal.)

For experiment [4], the system named is C. albicans. Nature of the experiment: Antifungal Activity Assay (broth microtiter MIC), C. albicans. It counts as cell-based, Candida albicans. As to conditions: Candida albicans, ATCC90028, 48 h. In outline:
as §1

The test system of experiment [5] is C. krusei. Nature of the experiment: Antifungal Activity Assay (broth microtiter MIC), C. krusei. As to conditions: Pichia kudriavzevii, ATCC6258, 48 h. The format is cell-based, Candida krusei. In outline: as §1
The mark [6] stands for this setting: Table 3b (additional results), ATCC 22019, 3 replicates, MIC recorded at 48 h, read-out: MIC, C. parapsilosis ATCC 22019.
The mark [7] stands for this setting: Table 3b (additional results), ATCC 90028, 3 replicates, MIC recorded at 48 h, read-out: MIC, C. albicans ATCC 90028.
Where [8] appears, read: Table 3b (additional results), ATCC 6258, 3 replicates, MIC recorded at 48 h, read-out: MIC, C. krusei ATCC 6258.
Setting [9] is: read-out: MIC, C. parapsilosis ATCC 22019, Table 3b (additional results), 3 replicates, MIC recorded at 48 h.
The mark [10] stands for this setting: read-out: MIC, C. albicans ATCC 90028, Table 3b (additional results), 3 replicates, MIC recorded at 48 h.
The mark [11] stands for this setting: read-out: MIC, C. krusei ATCC 6258, Table 3b (additional results), 3 replicates, MIC recorded at 48 h.

Chain of human (hACC2) (O00763 whole entry): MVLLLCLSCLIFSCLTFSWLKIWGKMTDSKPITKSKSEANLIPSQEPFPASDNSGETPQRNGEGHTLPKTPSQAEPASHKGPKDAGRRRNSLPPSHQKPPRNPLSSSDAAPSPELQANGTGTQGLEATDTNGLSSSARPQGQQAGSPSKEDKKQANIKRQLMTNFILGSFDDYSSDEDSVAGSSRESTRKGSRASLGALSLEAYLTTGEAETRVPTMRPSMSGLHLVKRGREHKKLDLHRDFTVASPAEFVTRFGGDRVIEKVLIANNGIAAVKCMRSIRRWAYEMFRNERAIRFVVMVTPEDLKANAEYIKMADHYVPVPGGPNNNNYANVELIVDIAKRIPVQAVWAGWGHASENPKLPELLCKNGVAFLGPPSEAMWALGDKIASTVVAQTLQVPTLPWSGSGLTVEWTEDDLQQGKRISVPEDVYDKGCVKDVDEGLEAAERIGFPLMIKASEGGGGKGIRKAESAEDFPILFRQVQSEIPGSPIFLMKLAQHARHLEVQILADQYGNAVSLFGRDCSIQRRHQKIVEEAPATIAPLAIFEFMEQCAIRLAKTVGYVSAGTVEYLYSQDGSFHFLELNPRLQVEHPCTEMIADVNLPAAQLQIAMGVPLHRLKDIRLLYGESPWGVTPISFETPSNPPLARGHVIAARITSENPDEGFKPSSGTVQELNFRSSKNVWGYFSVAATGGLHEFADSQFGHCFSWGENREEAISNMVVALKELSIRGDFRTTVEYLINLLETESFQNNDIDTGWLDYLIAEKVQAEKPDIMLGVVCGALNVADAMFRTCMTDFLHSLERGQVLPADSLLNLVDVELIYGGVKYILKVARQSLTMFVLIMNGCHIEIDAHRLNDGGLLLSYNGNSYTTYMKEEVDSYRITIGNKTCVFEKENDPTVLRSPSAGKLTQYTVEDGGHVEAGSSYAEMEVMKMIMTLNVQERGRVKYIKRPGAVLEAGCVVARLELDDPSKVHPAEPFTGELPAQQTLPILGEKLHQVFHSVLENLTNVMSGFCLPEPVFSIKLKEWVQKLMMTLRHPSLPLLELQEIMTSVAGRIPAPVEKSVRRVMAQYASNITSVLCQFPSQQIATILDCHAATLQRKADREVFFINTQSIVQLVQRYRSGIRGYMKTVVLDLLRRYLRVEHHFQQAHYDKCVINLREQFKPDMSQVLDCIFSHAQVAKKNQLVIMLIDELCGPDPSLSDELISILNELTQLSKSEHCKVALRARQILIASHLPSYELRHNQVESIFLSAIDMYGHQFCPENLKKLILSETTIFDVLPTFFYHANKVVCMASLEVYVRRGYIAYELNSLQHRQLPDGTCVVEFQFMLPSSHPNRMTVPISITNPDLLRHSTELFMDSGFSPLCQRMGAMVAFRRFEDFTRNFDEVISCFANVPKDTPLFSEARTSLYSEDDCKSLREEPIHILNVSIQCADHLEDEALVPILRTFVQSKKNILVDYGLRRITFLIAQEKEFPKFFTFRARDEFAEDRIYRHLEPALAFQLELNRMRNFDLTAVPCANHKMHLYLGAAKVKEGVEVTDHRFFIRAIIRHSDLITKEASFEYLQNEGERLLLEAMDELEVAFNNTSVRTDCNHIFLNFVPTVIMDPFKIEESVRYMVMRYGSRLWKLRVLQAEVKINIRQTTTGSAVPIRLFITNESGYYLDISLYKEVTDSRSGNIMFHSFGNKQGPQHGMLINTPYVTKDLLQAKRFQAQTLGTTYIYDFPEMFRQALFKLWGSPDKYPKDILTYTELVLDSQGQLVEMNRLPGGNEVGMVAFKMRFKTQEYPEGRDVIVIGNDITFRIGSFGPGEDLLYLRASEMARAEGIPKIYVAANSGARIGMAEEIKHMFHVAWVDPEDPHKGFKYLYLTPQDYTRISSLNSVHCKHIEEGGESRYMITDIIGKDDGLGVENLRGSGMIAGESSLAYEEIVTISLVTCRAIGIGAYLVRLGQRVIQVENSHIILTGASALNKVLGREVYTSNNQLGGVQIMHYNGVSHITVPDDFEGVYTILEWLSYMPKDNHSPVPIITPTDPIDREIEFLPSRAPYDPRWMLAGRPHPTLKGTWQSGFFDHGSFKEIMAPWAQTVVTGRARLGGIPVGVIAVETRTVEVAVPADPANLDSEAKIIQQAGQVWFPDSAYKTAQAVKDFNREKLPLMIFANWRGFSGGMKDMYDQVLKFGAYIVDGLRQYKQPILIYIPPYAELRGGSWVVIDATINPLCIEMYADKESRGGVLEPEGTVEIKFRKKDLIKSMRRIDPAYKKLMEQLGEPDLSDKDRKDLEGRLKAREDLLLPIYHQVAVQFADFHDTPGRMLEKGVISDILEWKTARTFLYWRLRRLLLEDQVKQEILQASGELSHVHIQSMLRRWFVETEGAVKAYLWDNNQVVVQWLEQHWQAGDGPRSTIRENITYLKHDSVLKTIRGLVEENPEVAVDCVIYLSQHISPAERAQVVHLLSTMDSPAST

Consider `COc1ccc(F)cc1[C@H](Cn1c(=O)n(C(C)(C)C(=O)NC(C)C)c(=O)c2c(C)c(-n3nccn3)sc21)OCCC(O)CO` (stereo partly drawn) [Compound I-220], for which the values for the IC50 in experiment [1] and in experiment [3] were 1 to 5 nM and 10 to 40 nM, respectively. Further, the MIC in experiment [2] (setting [6]), in experiment [4] (setting [7]) and in experiment [5] (setting [8]) was 0.25 to 1 µg/mL (≈ 0.395 to 1.58 µM) each time.
For `COc1ccc(Cl)cc1[C@H](Cn1c(=O)n(C(C)(C)C(=O)NC2CCC2)c(=O)c2c(C)c(-n3nccn3)sc21)OC1CCOCC1` [Compound I-228], the IC50 in experiment [1] lay in the range of 1 to 5 nM; in experiment [3] it was 5 to 10 nM. Also, the MIC fell in the range of 0.25 to 1 µg/mL (≈ 0.38 to 1.52 µM) in experiment [2] (setting [6]), 0.25 to 1 µg/mL (≈ 0.38 to 1.52 µM) in experiment [4] (setting [7]) and 0.06 to 0.249 µg/mL (≈ 0.0913 to 0.379 µM) in experiment [5] (setting [8]).
In the case of `CCc1ccc(F)cc1[C@H](Cn1c(=O)n(C(C)(C)C(=O)NC2CCC2)c(=O)c2c(C)c(-n3nccn3)sc21)OC1CCOCC1` [Compound I-232], the IC50 is 1 to 5 nM in experiment [1] and 5 to 10 nM in experiment [3]. In addition, the MIC in experiment [2] (setting [6]) lay in the range of 1.01 to 2 µg/mL (≈ 1.58 to 3.13 µM); in experiment [4] (setting [7]), 2.01 to 4 µg/mL (≈ 3.15 to 6.26 µM); in experiment [5] (setting [8]), 1.01 to 2 µg/mL (≈ 1.58 to 3.13 µM).
For `COc1ccc(F)cc1[C@H](Cn1c(=O)n(C(C)(C)C(=O)NC(C)C)c(=O)c2c(C)c(-n3nccn3)sc21)O[C@H]1C[C@@H](OCc2ccccc2)C1` [Compound I-233], the IC50 was 1 to 5 nM in experiment [1] and 10 to 40 nM in experiment [3]. Besides, the MIC in experiment [2] (setting [6]), in experiment [4] (setting [7]) and in experiment [5] (setting [8]) was 0.25 to 1 µg/mL (≈ 0.355 to 1.42 µM) throughout.
In the case of `Cc1c(-n2nccn2)sc2c1c(=O)n(C(C)(C)C(=O)NC(C)C)c(=O)n2C[C@H](OCCO)c1cc(F)ccc1OCc1ccccc1` [Compound I-237], the IC50 lay within 1 to 5 nM in experiment [1] and 10 to 40 nM in experiment [3]. For the same molecule, the MIC in experiment [2] (setting [6]), in experiment [4] (setting [7]) and in experiment [5] (setting [8]) was 1.01 to 2 µg/mL (≈ 1.52 to 3.01 µM) each time.
Consider `CCc1ccccc1[C@H](Cn1c(=O)n(C(C)(C)C(=O)NC(C)C)c(=O)c2c(C)c(-n3nccn3)sc21)O[C@H]1CC[C@@H](C#N)CC1` [Compound I-242], for which the IC50 in experiment [1] and in experiment [3] was 1 to 5 nM in each case. Besides, the MIC in experiment [2] (setting [9]), in experiment [4] (setting [10]) and in experiment [5] (setting [11]) was 1.01 to 2 µg/mL (≈ 1.6 to 3.17 µM) each time.
In the case of `CCc1ccc(F)cc1[C@H](Cn1c(=O)n(C(C)(C)C(=O)NC(C)C)c(=O)c2c(C)c(-n3nccn3)sc21)OC[C@H](C)C#N` [Compound I-243], the IC50 in experiment [1] is 1 to 5 nM; in experiment [3] it was above 40 nM. Also, the minimal inhibitory concentration (MIC) in experiment [2] (setting [6]) is 2.01 to 4 µg/mL (≈ 3.3 to 6.56 µM); in experiment [4] (setting [7]) it was 2.01 to 4 µg/mL (≈ 3.3 to 6.56 µM); in experiment [5] (setting [8]), above 4.01 µg/mL.
Take `CCc1ccc(F)cc1[C@H](Cn1c(=O)n(C(C)(C)C(=O)NC(C)C)c(=O)c2c(C)c(-n3nccn3)sc21)OC[C@@H](C)C#N` [Compound I-244]: the IC50 is 1 to 5 nM in experiment [1] and above 40 nM in experiment [3]. Also, the MIC in experiment [2] (setting [6]) was 2.01 to 4 µg/mL (≈ 3.3 to 6.56 µM); in experiment [4] (setting [7]), 2.01 to 4 µg/mL (≈ 3.3 to 6.56 µM); in experiment [5] (setting [8]), above 4.01 µg/mL.
For the molecule `Cc1c(-n2nccn2)sc2c1c(=O)n(C(C)(C)C(=O)NC(C)C)c(=O)n2C[C@H](OCCC#N)c1cc(F)ccc1OCc1ccccc1` [Compound I-249], the figures for the IC50 in experiment [1] and in experiment [3] were 0.3 to 1 nM and 5 to 10 nM, respectively. Further, the figures for the MIC in experiment [2] (setting [6]), in experiment [4] (setting [7]) and in experiment [5] (setting [8]) were 1.01 to 2 µg/mL (≈ 1.5 to 2.97 µM), 2.01 to 4 µg/mL (≈ 2.98 to 5.94 µM) and 2.01 to 4 µg/mL (≈ 2.98 to 5.94 µM), respectively.
Turning to `COc1ccc(F)cc1[C@H](Cn1c(=O)n(C(C)(C)C(=O)NC(C)C)c(=O)c2c(C)c(-n3nccn3)sc21)OCCOC(=O)C(C)C` [Compound I-250], the IC50 in experiment [1] was 1 to 5 nM; in experiment [3], 5 to 10 nM. For the same molecule, the MIC in experiment [2] (setting [6]) was 0.25 to 1 µg/mL (≈ 0.38 to 1.52 µM); in experiment [4] (setting [7]), 1.01 to 2 µg/mL (≈ 1.53 to 3.04 µM); in experiment [5] (setting [8]), 0.25 to 1 µg/mL (≈ 0.38 to 1.52 µM).
Regarding `COc1ccc(F)cc1[C@@H](Cn1c(=O)n(C(C)(C)C(=O)NC(C)C)c(=O)c2c(C)c(-n3nccn3)sc21)OC(=O)CO` [Compound I-261], the IC50 in experiment [1] lay within 0.3 to 1 nM; in experiment [3] it was 5 to 10 nM. Moreover, the figures for the MIC in experiment [2] (setting [6]), in experiment [4] (setting [7]) and in experiment [5] (setting [8]) were 1.01 to 2 µg/mL (≈ 1.68 to 3.32 µM), 0.25 to 1 µg/mL (≈ 0.415 to 1.66 µM) and 0.06 to 0.249 µg/mL (≈ 0.0996 to 0.413 µM), respectively.
`COc1ccc(F)cc1[C@@H](Cn1c(=O)n(C(C)(C)C(=O)NC(C)C)c(=O)c2c(C)c(-n3nccn3)sc21)OC(=O)C(C)(C)O` [Compound I-263]: the figures for the IC50 in experiment [1] and in experiment [3] were 0.3 to 1 nM and 10 to 40 nM, respectively. The MIC lay within 1.01 to 2 µg/mL (≈ 1.6 to 3.17 µM) in experiment [2] (setting [9]), 0.25 to 1 µg/mL (≈ 0.396 to 1.59 µM) in experiment [4] (setting [10]) and 0.25 to 1 µg/mL (≈ 0.396 to 1.59 µM) in experiment [5] (setting [11]).
